# Reference: US6818203B2, “Use of perfluoroalkyl-containing metal complexes as contrast media in MR-imaging for visualization of plaque, tumors and necroses” (Schering Aktiengesellschaft, priority 2000, dated 2004)
# Key:
# iliac lymph nodes [1] = experiment: lymph node visualization (MRT) after intravenous administration in VX2-tumor-bearing rabbits; format: in vivo; settings: 200 μmol of Gd/kg i.v.; for signal in zones within the lymph node diagnosed as metastases (confirmed histologically): early images
# Method: The pictures of FIG. 6 show MR images of an iliac lymph node and of a primary tumor (VX2-tumor implanted i.m.) precontrast, 60 minutes and 20 hours after intravenous administration of 100 μmol of Gd/kg of body weight of metal complex I in rabbits. […] The enhancement in the healthy lymph node tissue was 382% at the time of 15 minutes p.i. and 419% at the time of 60 minutes p.i. […] The ratio of signal intensities of healthy lymph node tissue to metastasis was 3.0 at the time of 15 minutes p.i. and 3.4 at the time of 60 minutes p.i. […] The enhancement in the healthy lymph node tissue was 246% at the time of 15 minutes p.i. and 282% at the time of 60 minutes p.i. […] The ratio of signal intensities of healthy lymph node tissue to metastasis was 2.5 at the time of 15 minutes p.i. and 1.7 at the time of 60 minutes p.i. […] The enhancement in the healthy lymph node tissue was 297% at the time of 10 minutes p.i. and 269% at the time of 60 minutes p.i. […] The ratio of signal intensities of healthy lymph node tissue to metastasis was 5.1 at the time of 10 minutes p.i. and 1.9 at the time of 60 minutes p.i. […] The enhancement in the healthy lymph node tissue was 195% at the time of 15 minutes p.i. and 233% at the time of 60 minutes p.i. […] The ratio of signal intensities of healthy lymph node tissue to metastasis was 1.9 at the time of 15 minutes p.i. and 1.8 at the time of 60 minutes p.i.
# iliac lymph nodes [2] = experiment: lymph node visualization (MRT) after intravenous administration in rats; format: in vivo; settings: 200 μmol of Gd/kg i.v.; for signal in healthy lymph node tissue (T1-weighted gradient-echo images): very shortly after injection
# Method: (§1) By way of example, the pictures in FIG. 8 show MR images of iliac lymph nodes precontrast and up to 60 minutes after intravenous administration of 100 μmol of Gd/kg of body weight of metal complex X in rats. […] The enhancement was thus 263% at the time of 15 minutes p.i. and 254% at the time of 60 minutes p.i.
# as §1, with “11” for “8”, “200” for “100”, “V” for “X”, “147%” for “263%”, “230%” for “254%”
# as §1, with “17” for “8”, “200” for “100”, “III” for “X”, “320%” for “263%”, “401%” for “254%”
# [3] = organ distribution (including lymph node concentration) after intravenous administration in rats; format: in vivo; settings: 24 hours after administration, 200 μmol Gd/kg i.v.
# Method: (§2) After intravenous administration of 100 μmol of total gadolinium/kg of body weight of a polar Gd-chelate with perfluorinated side chains (metal complex X) in rats, the metal content in various organs as well as in the lymph nodes (pooled as mesenteric and peripheral lymph nodes) was determined 24 hours after administration (MW, n=2).
# as §2, with “200” for “100”, “V)” for “X)”
# as §2, with “200” for “100”, “III)” for “X)”
# [4] = hydrodynamic micelle diameter (2 Rh) by photon correlation spectroscopy (PCS); format: physicochemical
# Source text: The amphiphilic compounds according to the invention are combined in solution and are present as aggregates. The size (2 Rh) of such aggregates (e.g., micelles, rods, wafers, etc.) can be determined with the aid of […] (PCS).
# As a second criterion, the hydrodynamic micelle diameter 2 Rh, which must be >1 nm, is therefore used. Those perfluoroalkyl-containing metal complexes according to the invention whose 2 RH is ≧3, quite especially preferably >4 nm, are especially suitable.
# Both the determination of the CMC and the photon correlation spectroscopy are described in H.-D. Dörfler, “Grenzflächen- und Kolloidchemie [Interface and Colloid Chemistry],” Weinheim, New York, Basel, Cambridge, Tokyo, VSH 1994.
# [5] = test system: primary tumor (VX2-tumor implanted i.m.); experiment: tumor visualization (MRT) after intravenous administration in VX2-tumor-bearing rabbits; format: in vivo; settings: 200 μmol of Gd/kg i.v.; for enhancement of the primary tumor (especially the periphery): 15 minutes p.i.
# Method: The pictures of FIG. 6 show MR images of an iliac lymph node and of a primary tumor (VX2-tumor implanted i.m.) precontrast, 60 minutes and 20 hours after intravenous administration of 100 μmol of Gd/kg of body weight of metal complex I in rabbits. […]
smiles,measurement,setting,value
O=C([O-])CN1CCN(CC(=O)[O-])CCN(CC(O)CNC(=O)CCCC(=O)N2CCN(C(F)(F)C(F)(F)C(F)(F)C(F)(F)C(F)(F)C(F)(F)C(F)(F)C(F)(F)F)CC2)CCN(CC(=O)[O-])CC1.[Gd+3] (stereo not shown) [metal complex III],signal in healthy lymph node tissue (T1-weighted gradient-echo images),iliac lymph nodes [1],strong signal rise
same,enhancement in the healthy lymph node tissue,iliac lymph nodes [1]; 15 minutes p.i.,195%
same,ratio of signal intensities of healthy lymph node tissue to metastasis,iliac lymph nodes [1]; 15 minutes p.i.,1.9
same,enhancement in the healthy lymph node tissue,iliac lymph nodes [1]; 60 minutes p.i.,233%
same,ratio of signal intensities of healthy lymph node tissue to metastasis,iliac lymph nodes [1]; 60 minutes p.i.,1.8
same,signal in zones within the lymph node diagnosed as metastases (confirmed histologically),iliac lymph nodes [1],without signal rise
same,enhancement in lymph node tissue,iliac lymph nodes [2]; 15 minutes p.i.,320%
same,enhancement in lymph node tissue,iliac lymph nodes [2]; 60 minutes p.i.,401%
same,signal in healthy lymph node tissue (T1-weighted gradient-echo images),iliac lymph nodes [2],strong signal rise
same,metal content,[3]; Blood,83 μmol Gd/L
same,"metal content, % Dose",[3]; Blood,1.15 % Dose
same,metal content,[3]; Brain,10 μmol Gd/L
same,"metal content, % Dose",[3]; Brain,0.05 % Dose
same,metal content,[3]; Carcass,242 μmol Gd/L
same,"metal content, % Dose",[3]; Carcass,36.30 % Dose
same,metal content,[3]; Femur,76 μmol Gd/L
same,"metal content, % Dose",[3]; Femur,0.32 % Dose
same,metal content,[3]; Heart,82 μmol Gd/L
same,"metal content, % Dose",[3]; Heart,0.13 % Dose
same,metal content,[3]; Intestine,230 μmol Gd/L
same,"metal content, % Dose",[3]; Intestine,3.56 % Dose
same,metal content,[3]; Kidneys,489 μmol Gd/L
same,"metal content, % Dose",[3]; Kidneys,1.97 % Dose
same,metal content,[3]; Liver,1222 μmol Gd/L
same,"metal content, % Dose",[3]; Liver,26.28 % Dose
same,metal content,[3]; Lung,338 μmol Gd/L
same,"metal content, % Dose",[3]; Lung,0.96 % Dose
same,metal content,[3]; Mesenteric lymph nodes,455 μmol Gd/L
same,"metal content, % Dose",[3]; Mesenteric lymph nodes,0.33 % Dose
same,metal content,[3]; Muscle,28 μmol Gd/L
same,"metal content, % Dose",[3]; Muscle,0.04 % Dose
same,metal content,[3]; Pancreas,203 μmol Gd/L
same,"metal content, % Dose",[3]; Pancreas,0.48 % Dose
same,metal content,[3]; Peripheral lymph nodes,279 μmol Gd/L
same,"metal content, % Dose",[3]; Peripheral lymph nodes,0.18 % Dose
same,metal content,[3]; Spleen,464 μmol Gd/L
same,"metal content, % Dose",[3]; Spleen,0.89 % Dose
same,metal content,[3]; Stomach,165 μmol Gd/L
same,"metal content, % Dose",[3]; Stomach,0.57 % Dose
same,"metal content, % Dose",[3]; Total,73.20 % Dose
same,2 Rh (hydrodynamic micelle diameter),[4],3.2 nm
same,enhancement of the primary tumor (especially the periphery),[5],232%
CC(C(=O)NCC(=O)N(CCOCCC(F)(F)C(F)(F)C(F)(F)C(F)(F)C(F)(F)C(F)(F)C(F)(F)C(F)(F)F)CC(O)CO)N1CCN(CC(=O)[O-])CCN(CC(=O)[O-])CCN(CC(=O)[O-])CC1.[Gd+3] (stereo not shown) [metal complex V],signal in healthy lymph node tissue (T1-weighted gradient-echo images),iliac lymph nodes [1],strong signal rise
same,enhancement in the healthy lymph node tissue,iliac lymph nodes [1]; 15 minutes p.i.,246%
same,ratio of signal intensities of healthy lymph node tissue to metastasis,iliac lymph nodes [1]; 15 minutes p.i.,2.5
same,enhancement in the healthy lymph node tissue,iliac lymph nodes [1]; 60 minutes p.i.,282%
same,ratio of signal intensities of healthy lymph node tissue to metastasis,iliac lymph nodes [1]; 60 minutes p.i.,1.7
same,signal in zones within the lymph node diagnosed as metastases (confirmed histologically),iliac lymph nodes [1],without signal rise
same,enhancement in lymph node tissue,iliac lymph nodes [2]; 15 minutes p.i.,147%
same,enhancement in lymph node tissue,iliac lymph nodes [2]; 60 minutes p.i.,230%
same,signal in healthy lymph node tissue (T1-weighted gradient-echo images),iliac lymph nodes [2],strong signal rise
same,metal content,[3]; Blood,15 μmol Gd/L
same,"metal content, % Dose",[3]; Blood,0.18 % Dose
same,metal content,[3]; Brain,4 μmol Gd/L
same,"metal content, % Dose",[3]; Brain,0.02 % Dose
same,metal content,[3]; Carcass,268 μmol Gd/L
same,"metal content, % Dose",[3]; Carcass,37.93 % Dose
same,metal content,[3]; Femur,13 μmol Gd/L
same,"metal content, % Dose",[3]; Femur,0.05 % Dose
same,metal content,[3]; Heart,14 μmol Gd/L
same,"metal content, % Dose",[3]; Heart,0.02 % Dose
same,metal content,[3]; Intestine,113 μmol Gd/L
same,"metal content, % Dose",[3]; Intestine,1.56 % Dose
same,metal content,[3]; Kidneys,436 μmol Gd/L
same,"metal content, % Dose",[3]; Kidneys,1.77 % Dose
same,metal content,[3]; Liver,344 μmol Gd/L
same,"metal content, % Dose",[3]; Liver,6.34 % Dose
same,metal content,[3]; Lung,62 μmol Gd/L
same,"metal content, % Dose",[3]; Lung,0.17 % Dose
same,metal content,[3]; Mesenteric lymph nodes,70 μmol Gd/L
same,"metal content, % Dose",[3]; Mesenteric lymph nodes,0.05 % Dose
same,metal content,[3]; Muscle,9 μmol Gd/L
same,"metal content, % Dose",[3]; Muscle,0.02 % Dose
same,metal content,[3]; Pancreas,30 μmol Gd/L
same,"metal content, % Dose",[3]; Pancreas,0.05 % Dose
same,metal content,[3]; Peripheral lymph nodes,44 μmol Gd/L
same,"metal content, % Dose",[3]; Peripheral lymph nodes,0.02 % Dose
same,metal content,[3]; Spleen,116 μmol Gd/L
same,"metal content, % Dose",[3]; Spleen,0.17 % Dose
same,metal content,[3]; Stomach,28 μmol Gd/L
same,"metal content, % Dose",[3]; Stomach,0.08 % Dose
same,"metal content, % Dose",[3]; Total,48.43 % Dose
same,2 Rh (hydrodynamic micelle diameter),[4],4.4 nm
same,enhancement of the primary tumor (especially the periphery),[5],350%
same,enhancement of the primary tumor (center of the tumor),[5]; 24 hours p.i.,106%
"CC(C(=O)NCC(=O)NCC(=O)N1CCN(C(=O)CNC(=O)CNC(=O)C(C)N2CCN(CC(=O)[O-])CCN(CC(=O)[O-])CCN(CC(=O)[O-])CC2)CCN(C(=O)COCCC(F)(F)C(F)(F)C(F)(F)C(F)(F)C(F)(F)C(F)(F)C(F)(F)C(F)(F)F)CCN(C(=O)CNC(=O)CNC(=O)C(C)N2CCN(CC(=O)[O-])CCN(CC(=O)[O-])CCN(CC(=O)[O-])CC2)CC1)N1CCN(CC(=O)[O-])CCN(CC(=O)[O-])CCN(CC(=O)[O-])CC1.[Gd+3].[Gd+3].[Gd+3] (stereo not shown) [metal complex XIV, 1,4,7-Tris{1,4,7-tris(N-(carboxylatomethyl)-10-[N-1-methyl-3,6-diaza-2,5,8-trioxooctane-1,8-diyl]-1,4,7,10-tetraazacyclododecane, Gdcomplex}-10-N-2H,2H,4H,4H,5H,5H-3-oxa-perfluoro-tridecanoyl]-1,4,7,10-tetraazacyclo-dodecane, Gd complex]",signal in healthy lymph node tissue (T1-weighted gradient-echo images),iliac lymph nodes [1],strong signal rise
same,enhancement in the healthy lymph node tissue,iliac lymph nodes [1]; 10 minutes p.i.,297%
same,ratio of signal intensities of healthy lymph node tissue to metastasis,iliac lymph nodes [1]; 10 minutes p.i.,5.1
same,enhancement in the healthy lymph node tissue,iliac lymph nodes [1]; 60 minutes p.i.,269%
same,ratio of signal intensities of healthy lymph node tissue to metastasis,iliac lymph nodes [1]; 60 minutes p.i.,1.9
same,signal in zones within the lymph node diagnosed as metastases (confirmed histologically),iliac lymph nodes [1],without signal rise
same,2 Rh (hydrodynamic micelle diameter),[4],2.2 nm
same,enhancement of the primary tumor (especially the periphery),[5],594%
same,enhancement of the primary tumor (center of the tumor),[5]; 120 hours p.i.,162%
